Test results from article PMC5965259 (Journal of medicinal chemistry, 2018).

What follows are compounds tested on bloodstream form T. brucei Lister 427 (assay: ATP–bioluminescence-based bloodstream form T. brucei cell viability assay). Settings: Trypanosoma brucei, 48 h, read-out: Tb427 EC50.

Row | SMILES | EC50
1 | Cc1cc(Nc2cc(C(C)(C)C)cc(C(C)(C)C)c2)nc(N)n1 [Compound 53, N^4-(3,5-Di-tert-butylphenyl)-6-methylpyrimidine-2,4-diamine] | 4.1 µM
2 | Cc1cc(Nc2cc(F)cc(Cl)c2)nc(N)n1 [Compound 61, N^4-(3-Chloro-5-fluorophenyl)-6-methylpyrimidine-2,4-diamine] | 17 µM
3 | Cc1nc(N)cc(Nc2cc(Cl)cc(Br)c2)n1 [Compound 27, N^4-(3-Bromo-5-chlorophenyl)-2-methylpyrimidine-4,6-diamine] | 20 µM
4 | Cc1cc(Nc2cc(Cl)cc(C#N)c2)nc(N)n1 [Compound 33, 3-((2-Amino-6-methylpyrimidin-4-yl)amino)-5-chlorobenzonitrile] | 12 µM
5 | Nc1nc(Nc2cc(Cl)cc(Cl)c2)cc(-c2ccccc2)n1 [Compound 11] | 7.2 µM
6 | Cc1cc(Nc2cc(Cl)cc(-c3ccc(F)cc3)c2)nc(N)n1 [Compound 91, N^4-(5-Chloro-4′-fluoro-[1,1′-biphenyl]-3-yl)-6-methylpyrimidine-2,4-diamine] | 1.6 µM
7 | Cc1cc(Nc2cc(Cl)cc(-c3cc4ccccc4s3)c2)nc(N)n1 [Compound 114, N^4-(3-(Benzo[b]thiophen-2-yl)-5-chlorophenyl)-6-methylpyrimidine-2,4-diamine] | 1.6 µM
8 | Cc1cc(Nc2cc(Cl)cc(-c3cnn(C)c3)c2)nc(N)n1 [Compound 116, N^4-(3-Chloro-5-(1-methyl-1H-pyrazol-4-yl)phenyl)-6-methylpyrimidine-2,4-diamine] | 6.7 µM
9 | Cc1cc(Nc2cc(Cl)cc(-c3ccccc3Cl)c2)nc(N)n1 [Compound 101, N^4-(2′,5-Dichloro-[1,1′-biphenyl]-3-yl)-6-methylpyrimidine-2,4-diamine] | 8.5 µM
10 | Cc1cc(Nc2cc(Cl)cc(S(F)(F)(F)(F)F)c2)nc(N)n1 [Compound 36, N^4-(3-Chloro-5-(pentafluoro-λ^6-sulfaneyl)phenyl)-6-methylpyrimidine-2,4-diamine] | 13 µM
11 | Cc1cc(Nc2cccc(Cl)c2)nc(N)n1 [Compound 55, N^4-(3-Chlorophenyl)-6-methylpyrimidine-2,4-diamine] | 42 µM
12 | CCCCOc1cc(Br)cc(Nc2cc(C)nc(N)n2)c1 [Compound 42, N^4-(3-Bromo-5-butoxyphenyl)-6-methylpyrimidine-2,4-diamine] | 1.9 µM
13 | COc1cc(Nc2cc(C)nc(N)n2)cc(OC)c1 [Compound 47, N^4-(3,5-Dimethoxyphenyl)-6-methylpyrimidine-2,4-diamine] | 41 µM
14 | Cc1cc(NCc2cc(Cl)cc(Cl)c2)nc(N)n1 [Compound 30, N^4-(3,5-Dichlorobenzyl)-6-methylpyrimidine-2,4-diamine] | 11 µM
15 | COc1ccc(-c2cc(Cl)cc(Nc3cc(C)nc(N)n3)c2)cc1 [Compound 93, N^4-(5-Chloro-4′-methoxy-[1,1′-biphenyl]-3-yl)-6-methylpyrimidine-2,4-diamine] | 4.5 µM
16 | CSc1cccc(Nc2cc(C)nc(N)n2)c1 [Compound 58] | > 25 µM
17 | Cc1cc(Nc2cc(Cl)cc(-c3ccc(C#N)cc3)c2)nc(N)n1 [Compound 96, 3′-((2-Amino-6-methylpyrimidin-4-yl)amino)-5′-chloro-[1,1′-biphenyl]-4-carbonitrile] | 1 µM
18 | Cc1cc(Nc2cc(Cl)cc(-c3ccc4c(c3)OCO4)c2)nc(N)n1 [Compound 109, N^4-(3-(Benzo[d][1,3]dioxol-5-yl)-5-chlorophenyl)-6-methylpyrimidine-2,4-diamine] | 2.3 µM
19 | Cc1cc(Nc2ccc(-c3cc(Cl)cc(Cl)c3)cc2)nc(N)n1 [Compound 89, N^4-(3′,5′-Dichloro-[1,1′-biphenyl]-4-yl)-6-methylpyrimidine-2,4-diamine] | 1 µM
20 | Nc1nc2c(c(Nc3cc(Cl)cc(Cl)c3)n1)CCC2 [Compound 15] | 19 µM
21 | Cc1cc(Nc2cc(Cl)cc(-c3cc(C(F)(F)F)cc(C(F)(F)F)c3)c2)nc(N)n1 [Compound 106, N^4-(5-Chloro-3′,5′-bis(trifluoromethyl)-[1,1′-biphenyl]-3-yl)-6-methylpyrimidine-2,4-diamine] | 0.53 µM
22 | CNc1nc(C)cc(Nc2cc(Cl)cc(Cl)c2)n1 [Compound 24, N^4-(3,5-Dichlorophenyl)-N^2,6-dimethylpyrimidine-2,4-diamine] | 2.7 µM
23 | CSc1ccccc1Nc1cc(C)nc(N)n1 [Compound 78] | > 25 µM
24 | Cc1cc(Nc2cc(Cl)cc(-c3ccccc3)c2)nc(N)n1 [Compound 35, N^4-(5-Chloro-[1,1′-biphenyl]-3-yl)-6-methylpyrimidine-2,4-diamine] | 4.5 µM
25 | Cc1nc(N)nc(Nc2cc(Cl)cc(Cl)c2)c1C [Compound 16] | 17 µM
26 | Cc1cc(Nc2cc(Cl)cc(-c3ccc(Cl)c(C(F)(F)F)c3)c2)nc(N)n1 [Compound 105, N^4-(4′,5-Dichloro-3′-(trifluoromethyl)-[1,1′-biphenyl]-3-yl)-6-methylpyrimidine-2,4-diamine] | 1.5 µM
27 | Nc1nc(Nc2cc(Cl)cc(Cl)c2)cc(N2CCOCC2)n1 [Compound 12] | 13 µM

Row | SMILES | EC50
28 | Cc1cc(C)cc(Nc2cc(C)nc(N)n2)c1 [Compound 52, N^4-(3,5-Dimethylphenyl)-6-methylpyrimidine-2,4-diamine] | 19 µM
29 | Cc1cc(Nc2cc(Cl)c(N3CCCCC3)c(Cl)c2)nc(N)n1 [Compound 71, N^4-(3,5-Dichloro-4-(piperidin-1-yl)phenyl)-6-methylpyrimidine-2,4-diamine] | 2.1 µM
30 | Cc1cc(Nc2cc(Br)cc(OCC(C)C)c2)nc(N)n1 [Compound 43, N^4-(3-Bromo-5-isobutoxyphenyl)-6-methylpyrimidine-2,4-diamine] | 4.4 µM
31 | Cc1cc(Nc2cc(C(=O)Nc3cc(Cl)cc(Cl)c3)cc(C(=O)Nc3cc(Cl)cc(Cl)c3)c2)nc(N)n1 [Compound 51, 5-((2-Amino-6-methylpyrimidin-4-yl)amino)-N^1,N^3-bis(3,5-dichlorophenyl)isophthalamide] | 2 µM
32 | Cc1cc(N)cc(Nc2cc(Cl)cc(Cl)c2)n1 [Compound 19, N^2-(3,5-Dichlorophenyl)-6-methylpyridine-2,4-diamine] | 13 µM
33 | CCc1cc(Nc2cc(C)nc(N)n2)cc(-c2ccc(F)cc2)c1 [Compound 118, N^4-(5-Ethyl-4′-fluoro-[1,1′-biphenyl]-3-yl)-6-methylpyrimidine-2,4-diamine] | 1.3 µM
34 | Cc1cc(Nc2cc(C(F)(F)F)cc(C(F)(F)F)c2)nc(N)n1 [Compound 46, N^4-(3,5-Bis(trifluoromethyl)phenyl)-6-methylpyrimidine-2,4-diamine] | 14 µM
35 | Cc1cc(Nc2cc(Br)cc(OCC(F)(F)F)c2)nc(N)n1 [Compound 40, N^4-(3-Bromo-5-(2,2,2-trifluoroethoxy)phenyl)-6-methylpyrimidine-2,4-diamine] | 4.2 µM
36 | Cc1cc(Nc2cc(Cl)cc(-c3ccc(O)cc3)c2)nc(N)n1 [Compound 98, 3′-((2-Amino-6-methylpyrimidin-4-yl)amino)-5′-chloro-[1,1′-biphenyl]-4-ol] | 9.7 µM
37 | Cc1cc(Nc2cccc(F)c2)nc(N)n1 [Compound 57] | > 25 µM
38 | Cc1cc(Nc2cc(Cl)c(N(C)C)c(Cl)c2)nc(N)n1 [Compound 69, N^4-(3,5-Dichloro-4-(dimethylamino)phenyl)-6-methylpyrimidine-2,4-diamine] | 5.8 µM
39 | Cc1cc(Nc2cc(C(=O)O)cc(C(=O)O)c2)nc(N)n1 [Compound 48, 5-((2-Amino-6-methylpyrimidin-4-yl)amino)isophthalic acid] | > 100 µM
40 | CCc1ccc(Nc2cc(C)nc(N)n2)cc1 [Compound 86] | 19 µM
41 | Cc1cc(Nc2cc(Cl)cc(C(F)(F)F)c2)nc(N)n1 [Compound 34, N^4-(3-Chloro-5-(trifluoromethyl)phenyl)-6-methylpyrimidine-2,4-diamine] | 13 µM
42 | Cc1cc(Nc2cc(Cl)cc(-c3cncs3)c2)nc(N)n1 [Compound 115, N^4-(3-Chloro-5-(thiazol-5-yl)phenyl)-6-methylpyrimidine-2,4-diamine] | 3.6 µM
43 | Cc1cc(Nc2cc(Br)c(F)c(Br)c2)nc(N)n1 [Compound 63, N^4-(3,5-Dibromo-4-fluorophenyl)-6-methylpyrimidine-2,4-diamine] | 4.6 µM
44 | Cc1cc(Nc2cc(Cl)cc(Cl)c2)cc(N)n1 [Compound 20, N^4-(3,5-Dichlorophenyl)-6-methylpyridine-2,4-diamine] | 2.2 µM
45 | Cc1cc(Nc2cc(Cl)cc(Cl)c2)nc(N(C)C)n1 [Compound 25, N^4-(3,5-Dichlorophenyl)-N^2,N^2,6-trimethylpyrimidine-2,4-diamine] | 14 µM
46 | Cc1ccc(-c2cc(Cl)cc(Nc3cc(C)nc(N)n3)c2)cc1 [Compound 94, N^4-(5-Chloro-4′-methyl-[1,1′-biphenyl]-3-yl)-6-methylpyrimidine-2,4-diamine] | 4.3 µM
47 | Nc1cccc(Nc2cc(Cl)cc(Cl)c2)n1 [Compound 17] | 96 µM
48 | Cc1cc(Nc2cc(Br)cc(S(F)(F)(F)(F)F)c2)nc(N)n1 [Compound 37, N^4-(3-Bromo-5-(pentafluoro-λ^6-sulfaneyl)phenyl)-6-methylpyrimidine-2,4-diamine] | 0.45 µM
49 | Cc1cc(Nc2ccc(C(C)C)cc2)nc(N)n1 [Compound 87] | 11 µM
50 | Cc1cc(Nc2cc(Cl)cc(-c3ccc(N(C)C)cc3)c2)nc(N)n1 [Compound 100, N^4-(5-Chloro-4′-(dimethylamino)-[1,1′-biphenyl]-3-yl)-6-methylpyrimidine-2,4-diamine] | 5 µM
51 | Cc1cc(Nc2cc(Cl)cc(-c3ccoc3)c2)nc(N)n1 [Compound 111, N^4-(3-Chloro-5-(furan-3-yl)phenyl)-6-methylpyrimidine-2,4-diamine] | 7.1 µM
52 | Cc1cc(Nc2cc(Cl)c(O)c(Cl)c2)nc(N)n1 [Compound 67, 4-((2-Amino-6-methylpyrimidin-4-yl)amino)-2,6-dichlorophenol] | 13 µM
53 | CCc1cc(Br)cc(Nc2cc(C)nc(N)n2)c1 [Compound 38, N^4-(3-Bromo-5-ethylphenyl)-6-methylpyrimidine-2,4-diamine] | 5.5 µM
54 | Cc1cc(Sc2cc(Cl)cc(Cl)c2)nc(N)n1 [Compound 29, 4-((3,5-Dichlorophenyl)thio)-6-methylpyrimidin-2-amine] | > 25 µM
